Assay results from US20090099237A1, “Methods of treating inflammatory diseases” (Roche Palo Alto LLC, priority 2007, published 2009).
Read-outs that look alike come from different tables or passages of the source.

Assays:
p38-beta = p38-beta (Homo sapiens, UniProt Q15759); assay: KinomeScan kinase profiling; assay type: binding; settings: 10 μM
CK1γ1 = target: T1, CK1γ1 (Homo sapiens, UniProt Q9HCP0); assay: In vitro kinase assay (33P, peptide substrate); assay type: biochemical
T1 construct: purchased Invitrogen

DAPK2 = target: T2, DAPK2 (Homo sapiens, UniProt Q9UIK4); assay: KinomeScan kinase profiling; assay type: binding; settings: 10 μM
T2 construct: purchased Ambit Biosciences (San Diego, Calif.)

p38-alpha = p38-alpha (Homo sapiens, UniProt Q16539); assay: KinomeScan kinase profiling; assay type: binding; settings: 10 μM
CLK2 = target: T3, CLK2 (Homo sapiens, UniProt P49760); assay: KinomeScan kinase profiling; assay type: binding; settings: 10 μM
T3 construct: purchased Ambit Biosciences (San Diego, Calif.)

PDPK1 = PDPK1 (Homo sapiens, UniProt O15530); assay: KinomeScan kinase profiling; assay type: binding; settings: 10 μM
Procedure, shortened: (§1)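 To determine selectivity, compounds were run against a panel exceeding 200 known kinases and scored for modulatory activity.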

DMPK = target: T4, DMPK (Homo sapiens, UniProt Q09013); assay: KinomeScan kinase profiling; assay type: binding; settings: 10 μM
T4 construct: purchased Ambit Biosciences (San Diego, Calif.)
Procedure, shortened: as §1

YES = target: T5, YES (Homo sapiens, UniProt P07947); assay: KinomeScan kinase profiling; assay type: binding; settings: 10 μM
T5 construct: purchased Ambit Biosciences
Procedure, shortened: as §1

BLK = target: T6, BLK (Homo sapiens, UniProt P51451); assay: KinomeScan kinase profiling; assay type: binding; settings: 10 μM
T6 construct: purchased Ambit Biosciences
Procedure, shortened: as §1

VEGFR2 = target: T7, VEGFR2 (Homo sapiens, UniProt P35968); assay: KinomeScan kinase profiling; assay type: binding; settings: 10 μM
T7 construct: purchased Ambit Biosciences
Procedure, shortened: as §1

PKMYT1 = target: T8, PKMYT1 (Homo sapiens, UniProt Q99640); assay: KinomeScan kinase profiling; assay type: binding; settings: 10 μM
T8 construct: purchased Ambit Biosciences
Procedure, shortened: as §1

ITK = target: T9, ITK (Homo sapiens, UniProt Q08881); assay: KinomeScan kinase profiling; assay type: binding; settings: 10 μM
T9 construct: purchased Ambit Biosciences
Procedure, shortened: as §1

CAMK2A = target: T10, CAMK2A (Homo sapiens, UniProt Q9UQM7); assay: KinomeScan kinase profiling; assay type: binding; settings: 10 μM
T10 construct: purchased Ambit Biosciences
Procedure, shortened: as §1

PTK2 = target: T11, PTK2 (Homo sapiens, UniProt Q05397); assay: KinomeScan kinase profiling; assay type: binding; settings: 10 μM
T11 construct: purchased Ambit Biosciences
Procedure, shortened: as §1

NEK6 = NEK6 (Homo sapiens, UniProt Q9HC98); assay: KinomeScan kinase profiling; assay type: binding; settings: 10 μM
Procedure, shortened: as §1

RPS6KA3 = target: T12, RPS6KA3 (Homo sapiens, UniProt P51812); assay: KinomeScan kinase profiling; assay type: binding; settings: 10 μM
T12 construct: purchased Ambit Biosciences

JAK2(Kin.Dom2) = target: T13, JAK2(Kin.Dom2) (Homo sapiens, UniProt O60674); assay: KinomeScan kinase profiling; assay type: binding; settings: 10 μM
T13 construct: JAK2(Kin.Dom2); purchased Ambit Biosciences

EPHA3 = target: T14, EPHA3 (Homo sapiens, UniProt P29320); assay: KinomeScan kinase profiling; assay type: binding; settings: 10 μM
T14 construct: purchased Ambit Biosciences (San Diego, Calif.)

CK1δ = target: T15, CK1δ (Homo sapiens, UniProt P48730); assay: In vitro kinase assay (33P, peptide substrate); assay type: biochemical
T15 construct: purchased Upstate

EPHA2 = target: T16, EPHA2 (Homo sapiens, UniProt P29317); assay: KinomeScan kinase profiling; assay type: binding; settings: 10 μM
T16 construct: purchased Ambit Biosciences (San Diego, Calif.)

CDK5 = target: T17, CDK5 (Homo sapiens, UniProt Q00535); assay: KinomeScan kinase profiling; assay type: binding; settings: 10 μM
T17 construct: purchased Ambit Biosciences (San Diego, Calif.)

CSNK1E = target: T18, CSNK1E (Homo sapiens, UniProt P49674); assay: KinomeScan kinase profiling; assay type: binding; settings: 10 μM
T18 construct: purchased Ambit Biosciences (San Diego, Calif.)

T12 sequence (P51812 whole entry): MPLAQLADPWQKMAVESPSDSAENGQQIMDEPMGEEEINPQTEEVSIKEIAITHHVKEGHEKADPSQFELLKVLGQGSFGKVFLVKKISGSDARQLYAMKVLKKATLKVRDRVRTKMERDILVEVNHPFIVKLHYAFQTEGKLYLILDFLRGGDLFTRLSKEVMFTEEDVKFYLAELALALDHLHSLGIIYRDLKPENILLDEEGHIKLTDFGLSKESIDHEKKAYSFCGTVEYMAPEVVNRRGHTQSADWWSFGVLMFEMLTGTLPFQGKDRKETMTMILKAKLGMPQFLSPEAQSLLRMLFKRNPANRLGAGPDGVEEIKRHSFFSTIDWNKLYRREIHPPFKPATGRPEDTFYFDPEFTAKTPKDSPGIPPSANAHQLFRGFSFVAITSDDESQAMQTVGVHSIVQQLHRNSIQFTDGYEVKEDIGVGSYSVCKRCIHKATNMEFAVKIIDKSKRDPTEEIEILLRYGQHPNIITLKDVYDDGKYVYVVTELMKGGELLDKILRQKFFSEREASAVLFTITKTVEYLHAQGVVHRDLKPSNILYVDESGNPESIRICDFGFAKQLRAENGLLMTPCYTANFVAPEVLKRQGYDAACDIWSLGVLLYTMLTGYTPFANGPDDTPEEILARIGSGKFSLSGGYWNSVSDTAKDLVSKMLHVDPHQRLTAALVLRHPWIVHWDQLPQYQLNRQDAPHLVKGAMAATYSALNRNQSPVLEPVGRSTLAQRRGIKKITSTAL
T9 sequence (Q08881 whole entry): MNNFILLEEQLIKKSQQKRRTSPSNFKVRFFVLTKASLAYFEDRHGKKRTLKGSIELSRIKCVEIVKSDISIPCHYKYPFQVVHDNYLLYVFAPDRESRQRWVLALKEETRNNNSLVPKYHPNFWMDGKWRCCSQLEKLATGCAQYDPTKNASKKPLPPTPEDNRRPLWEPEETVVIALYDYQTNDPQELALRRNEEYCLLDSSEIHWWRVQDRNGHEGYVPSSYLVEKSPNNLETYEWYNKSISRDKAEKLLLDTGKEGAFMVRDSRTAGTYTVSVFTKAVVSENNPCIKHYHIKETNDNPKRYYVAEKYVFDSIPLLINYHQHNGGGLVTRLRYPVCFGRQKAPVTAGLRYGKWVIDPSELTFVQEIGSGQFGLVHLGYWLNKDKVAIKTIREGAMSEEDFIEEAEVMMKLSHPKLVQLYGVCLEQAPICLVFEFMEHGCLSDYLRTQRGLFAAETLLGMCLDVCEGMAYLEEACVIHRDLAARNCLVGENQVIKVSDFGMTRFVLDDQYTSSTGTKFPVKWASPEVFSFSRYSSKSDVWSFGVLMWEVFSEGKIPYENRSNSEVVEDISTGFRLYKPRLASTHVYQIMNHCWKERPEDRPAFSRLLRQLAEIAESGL
T2 sequence (Q9UIK4 whole entry): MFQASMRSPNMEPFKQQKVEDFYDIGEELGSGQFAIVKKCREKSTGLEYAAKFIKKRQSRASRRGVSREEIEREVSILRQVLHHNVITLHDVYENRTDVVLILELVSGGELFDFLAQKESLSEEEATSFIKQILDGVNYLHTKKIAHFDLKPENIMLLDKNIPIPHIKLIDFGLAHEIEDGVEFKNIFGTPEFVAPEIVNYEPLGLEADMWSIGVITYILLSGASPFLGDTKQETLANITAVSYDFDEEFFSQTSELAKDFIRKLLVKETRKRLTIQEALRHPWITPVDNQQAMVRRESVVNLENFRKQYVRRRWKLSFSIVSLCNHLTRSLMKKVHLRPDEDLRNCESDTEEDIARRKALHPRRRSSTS
T16 sequence (P29317 24-976): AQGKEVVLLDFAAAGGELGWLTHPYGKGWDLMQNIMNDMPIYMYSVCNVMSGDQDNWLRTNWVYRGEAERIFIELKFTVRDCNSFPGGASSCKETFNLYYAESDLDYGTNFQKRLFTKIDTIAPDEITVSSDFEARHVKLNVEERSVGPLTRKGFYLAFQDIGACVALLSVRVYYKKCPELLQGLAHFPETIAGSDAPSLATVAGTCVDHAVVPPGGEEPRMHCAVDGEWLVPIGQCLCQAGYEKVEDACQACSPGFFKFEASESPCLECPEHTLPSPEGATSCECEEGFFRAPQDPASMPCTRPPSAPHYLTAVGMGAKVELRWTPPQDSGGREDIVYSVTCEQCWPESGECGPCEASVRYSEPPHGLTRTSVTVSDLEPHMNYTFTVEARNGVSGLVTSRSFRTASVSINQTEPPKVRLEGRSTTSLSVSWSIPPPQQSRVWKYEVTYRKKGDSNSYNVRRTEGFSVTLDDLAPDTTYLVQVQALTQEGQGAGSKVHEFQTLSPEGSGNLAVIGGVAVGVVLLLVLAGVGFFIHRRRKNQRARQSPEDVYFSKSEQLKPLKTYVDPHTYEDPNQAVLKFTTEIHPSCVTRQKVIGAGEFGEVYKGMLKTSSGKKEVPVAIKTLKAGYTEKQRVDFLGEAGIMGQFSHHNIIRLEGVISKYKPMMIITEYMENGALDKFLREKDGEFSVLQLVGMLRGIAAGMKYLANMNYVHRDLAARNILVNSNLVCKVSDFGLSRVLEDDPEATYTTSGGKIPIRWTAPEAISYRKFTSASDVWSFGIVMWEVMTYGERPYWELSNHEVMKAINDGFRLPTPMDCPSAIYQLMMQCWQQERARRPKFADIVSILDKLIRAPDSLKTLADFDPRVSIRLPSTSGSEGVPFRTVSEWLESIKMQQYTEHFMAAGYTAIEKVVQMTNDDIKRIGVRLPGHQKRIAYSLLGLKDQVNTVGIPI
T5 sequence (P07947 whole entry): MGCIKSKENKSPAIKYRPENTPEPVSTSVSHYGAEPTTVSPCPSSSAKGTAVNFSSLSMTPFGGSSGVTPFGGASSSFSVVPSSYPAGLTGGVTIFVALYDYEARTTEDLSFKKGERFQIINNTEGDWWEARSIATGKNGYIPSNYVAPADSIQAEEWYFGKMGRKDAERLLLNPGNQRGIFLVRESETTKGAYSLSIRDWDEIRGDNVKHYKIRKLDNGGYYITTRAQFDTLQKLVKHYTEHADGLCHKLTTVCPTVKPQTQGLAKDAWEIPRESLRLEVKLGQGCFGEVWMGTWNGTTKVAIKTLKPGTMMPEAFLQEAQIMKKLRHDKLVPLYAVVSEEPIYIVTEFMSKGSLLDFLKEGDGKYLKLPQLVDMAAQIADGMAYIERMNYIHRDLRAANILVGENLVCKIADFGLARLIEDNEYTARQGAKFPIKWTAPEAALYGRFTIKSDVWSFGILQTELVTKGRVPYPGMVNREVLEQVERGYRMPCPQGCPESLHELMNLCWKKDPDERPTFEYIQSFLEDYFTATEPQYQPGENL
T6 sequence (P51451 whole entry): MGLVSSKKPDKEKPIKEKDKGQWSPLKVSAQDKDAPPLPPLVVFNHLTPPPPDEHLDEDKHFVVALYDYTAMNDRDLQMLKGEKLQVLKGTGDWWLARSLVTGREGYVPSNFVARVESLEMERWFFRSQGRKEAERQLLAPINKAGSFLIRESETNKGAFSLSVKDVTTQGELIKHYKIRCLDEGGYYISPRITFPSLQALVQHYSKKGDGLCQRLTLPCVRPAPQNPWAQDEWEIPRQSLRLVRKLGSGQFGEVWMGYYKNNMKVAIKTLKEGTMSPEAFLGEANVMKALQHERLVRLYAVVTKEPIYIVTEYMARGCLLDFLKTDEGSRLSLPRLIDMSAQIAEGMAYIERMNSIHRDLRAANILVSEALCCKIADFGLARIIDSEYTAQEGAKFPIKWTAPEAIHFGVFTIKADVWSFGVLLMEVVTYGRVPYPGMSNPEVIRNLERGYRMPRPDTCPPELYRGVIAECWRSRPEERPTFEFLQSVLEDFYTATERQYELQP
T14 sequence (P29320 21-983): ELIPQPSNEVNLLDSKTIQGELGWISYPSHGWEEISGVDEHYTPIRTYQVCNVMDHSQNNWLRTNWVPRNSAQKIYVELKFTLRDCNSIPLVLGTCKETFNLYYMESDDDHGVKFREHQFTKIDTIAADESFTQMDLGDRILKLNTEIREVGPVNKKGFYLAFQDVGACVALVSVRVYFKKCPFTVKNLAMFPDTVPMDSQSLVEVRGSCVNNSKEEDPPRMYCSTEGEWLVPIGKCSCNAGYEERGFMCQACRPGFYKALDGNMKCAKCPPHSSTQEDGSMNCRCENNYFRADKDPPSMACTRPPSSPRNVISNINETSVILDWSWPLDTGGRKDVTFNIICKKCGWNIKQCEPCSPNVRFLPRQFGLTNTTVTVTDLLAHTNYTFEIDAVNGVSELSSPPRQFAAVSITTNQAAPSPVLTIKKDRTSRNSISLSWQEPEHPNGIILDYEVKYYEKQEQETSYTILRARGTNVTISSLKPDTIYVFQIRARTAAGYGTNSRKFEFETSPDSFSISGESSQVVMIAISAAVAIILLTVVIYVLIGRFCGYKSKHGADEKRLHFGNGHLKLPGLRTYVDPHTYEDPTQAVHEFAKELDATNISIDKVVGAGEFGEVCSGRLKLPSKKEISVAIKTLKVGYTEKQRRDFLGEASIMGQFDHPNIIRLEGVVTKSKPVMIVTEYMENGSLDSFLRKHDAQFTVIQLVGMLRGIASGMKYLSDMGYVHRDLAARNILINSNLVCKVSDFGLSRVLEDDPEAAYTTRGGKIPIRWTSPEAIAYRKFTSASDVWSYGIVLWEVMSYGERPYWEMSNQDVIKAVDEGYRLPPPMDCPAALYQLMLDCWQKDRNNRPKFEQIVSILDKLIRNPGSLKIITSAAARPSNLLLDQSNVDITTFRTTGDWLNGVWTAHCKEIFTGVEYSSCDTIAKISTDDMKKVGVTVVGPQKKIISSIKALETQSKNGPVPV
NEK6, sequence (Q9HC98 whole entry): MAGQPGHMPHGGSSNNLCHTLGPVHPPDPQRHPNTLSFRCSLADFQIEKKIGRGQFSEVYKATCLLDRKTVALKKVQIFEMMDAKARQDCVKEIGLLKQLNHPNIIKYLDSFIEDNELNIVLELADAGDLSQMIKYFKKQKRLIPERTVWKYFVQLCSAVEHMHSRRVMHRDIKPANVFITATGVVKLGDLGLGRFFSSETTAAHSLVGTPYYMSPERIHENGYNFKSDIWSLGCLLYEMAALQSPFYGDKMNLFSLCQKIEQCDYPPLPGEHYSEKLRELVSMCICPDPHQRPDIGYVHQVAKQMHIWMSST

Compound	% Binding (p38-beta)	% Binding (DAPK2)	% Binding (p38-alpha)	% Binding (CLK2)	% Binding (PDPK1)	% Binding (DMPK)	% Binding (YES)	% Binding (BLK)	% Binding (VEGFR2)	% Binding (PKMYT1)	% Binding (ITK)	% Binding (CAMK2A)	% Binding (PTK2)	% Binding (NEK6)	% Binding (RPS6KA3)	% Binding (JAK2(Kin.Dom2))	% Binding (EPHA3)	% Binding (EPHA2)	% Binding (CDK5)	% Binding (CSNK1E)	other results
COc1cc(OC)c(C=C2C(O)=Nc3ccccc32)c(OC)c1 [IC261, 3-[(2,4,6-trimethoxyphenyl)methylidenyl]-indolin-2-one]	<50%	<50%	<50%	<50%	<50%	<50%	<50%	<50%	<50%	<50%	<50%	<50%	<50%	<50%	<50%	<50%	<50%	<50%	<50%	100%	IC50 (CK1γ1): > 100 µM; IC50 (CK1δ): 1.5 µM
NC(=O)c1cc(-c2ccncc2)c[nH]1 [Compound A, 4-Pyridin-4-yl-1H-pyrrole-2-carboxylic acid amide]	<50%	<50%	<50%	<50%	<50%	<50%	<50%	<50%	<50%	<50%	<50%	<50%	<50%	<50%	<50%	<50%	<50%	<50%	<50%	94%	IC50 (CK1γ1; CK1γ1, 50 μM ATP, read-out: IC50): > 100 µM; IC50 (CK1δ; CK1δ, 50 μM ATP, read-out: IC50): 7.57 µM
